Results taken from paper PMC6094432, “Design, Synthesis and Evaluation of Substituted Aryl-2-Nitrovinyl Derivatives as Small Molecules Proteasome Inhibitors” (Iranian Journal of Pharmaceutical Research : IJPR, 2018).
Where two headings read alike, the source gives them in different places.

Tests used:
[1] = biological target: T1, 20S proteasome ChT-L activity (Homo sapiens, UniProt P28074); assay: Cell-based 20S proteasome ChT-L inhibition assay in MCF-7 cells
T1 construct: This assay measures the ChT-L protease activity in cultured cells; endogenous in cells; host or cells: MCF-7 and PC-3 cells
Procedure: (§1) Cell-based proteasome inhibition assay
(§2) The effect of the derivatives on the 20S proteasome activity was determined using the 20S proteasome activity assay kit from Sigma (USA). This assay measures the ChT-L protease activity in cultured cells and is based on the detection of the fluorophore R110 after cleavage from the labeled substrate LLVY-R110. MCF-7 and PC-3 cells were pretreated with different concentrations of corresponding compounds and proteasome activities were determined according to the manufacturer′s protocol. Proteasome activity generates strongly green fluorescent R110, which was monitored at an excitation wavelength of 480 nm and emission of […] on a microplate fluorescence reader. All data were calculated by subtracting the blank control.

[2] = biological target: T1, 20S proteasome ChT-L activity; assay: Cell-based 20S proteasome ChT-L inhibition assay in PC-3 cells
Procedure: as §1, §2

MCF-7 cells = assay: Cell viability (MTT) assay, MCF-7; type: cell-based; conditions: Homo sapiens, read-out: Cell cytotoxicity assay IC50 MCF-7
Procedure: (§3) Human breast cancer (MCF-7), and human prostate cancer (PC-3) cells were cultured in their respective media supplemented with 10% fetal bovine serum (FBS). The cells were cultured at 1 × 10^4 cells per well, in a 96-well plate and incubated for 24-48 h to obtain cell attachments. Afterwards, the cells were treated with different concentrations of test compounds for 48 h and then incubated with 20 µL of 5 mg/mL 3-(4,5-dimethylthiazol-2-yl)-2,5-diphenyl tetrazolium bromide (MTT) solution for 4 h. After aspiration of the MTT solution, 100 µL of DMSO was added to each well to dissolve formazan crystals. The absorbance of each well was measured at the wavelength of 550 nm using an enzyme-linked immunosorbent assay reader. IC50 values were calculated from the curves generated by plotting the percentage of the viable cells versus the test concentration on a logarithmic scale using SigmaPlot 10.0 software.

PC-3 cells = assay: Cell viability (MTT) assay, PC-3; type: cell-based; conditions: Homo sapiens, read-out: Cell cytotoxicity assay IC50 PC-3
Procedure: as §3

[3] = MCF7, MCF-7 cells, percent inhibition at 10 µM, ChT-L activity, LLVY-R110 substrate, read-out: 20S proteasome inhibition, Inhibition [%] MCF-7
[4] = MCF-7 cells, ChT-L activity, LLVY-R110 substrate
[5] = PC-3 cells, percent inhibition at 25 µM, ChT-L activity, LLVY-R110 substrate, read-out: 20S proteasome inhibition, Inhibition [%] PC-3
[6] = PC-3 cells, ChT-L activity, LLVY-R110 substrate
[7] = MCF7, MCF-7, MTT, 48 h treatment, mean ± SD of three independent experiments
[8] = PC-3, MTT, 48 h treatment, mean ± SD of three independent experiments

inhibition at 10 µM ([1]; MCF7, read-out: 20S proteasome inhibition, Inhibition [%] MCF-7) [%]	inhibition at 25 µM ([2]; PC-3, read-out: 20S proteasome inhibition, Inhibition [%] PC-3) [%]	inhibition at 10 µM [1, 3] [%]	IC50 [1, 4] [µM]	inhibition at 25 µM [2, 5] [%]	IC50 [2, 6] [µM]	melting point [°C]	SMILES	IC50 (MCF-7 cells; MCF7, 48 h) [µM]	IC50 (PC-3 cells; PC-3, 48 h) [µM]	IC50 (MCF-7 cells; [7]) [µM]	IC50 (PC-3 cells; [8]) [µM]
86.7 ± 5.1	74 ± 4.6	–	–	–	–	–	CC(C)C[C@H](NC(=O)[C@H](Cc1ccccc1)NC(=O)c1cnccn1)B(O)O [Bortezomib, bortezomib, reference compound]	0.04 ± 0.01	0.26 ± 0.02	–	–
–	–	90.3 ± 5	1.7 ± 0.02	72.4 ± 2.2	21.7 ± 1.17	–	O=[N+]([O-])C(=Cc1ccccc1)CO [Compound 2a, 2-Nitro-3-phenylprop-2-en-1-ol]	2.4 ± 0.08	29.27 ± 0.12	–	–
–	–	44.1 ± 2.8	10.3 ± 0.17	40.3 ± 1.9	22.02 ± 0.09	–	O=[N+]([O-])C(=Cc1ccc(Cl)cc1)CO [Compound 2b, 2-Nitro-3-(4-chlorophenyl)prop-2-en-1-ol]	17.34 ± 0.13	20.79 ± 0.01	–	–
–	–	93.4 ± 5.2	2.82 ± 0.06	87 ± 4.1	25.9 ± 2.37	52 to 54	Cc1ccc(C=C(CO)[N+](=O)[O-])cc1 [Compound 2c, 2-Nitro-3-(4-tolyl)prop-2-en-1-ol]	5.08 ± 0.05	46.6 ± 6.72	–	–
–	–	85 ± 6.1	0.71 ± 0.01	86.3 ± 5	17.8 ± 1.05	–	COc1ccc(C=C(CO)[N+](=O)[O-])cc1 [Compound 2d, 2-Nitro-3-(4-methoxyphenyl)prop-2-en-1-ol]	1.17 ± 0.04	32.3 ± 2.04	–	–
–	–	50.4 ± 3.9	11.1 ± 0.17	63.9 ± 4.4	40.22 ± 0.07	98 to 100	O=[N+]([O-])C(=Cc1ccc(Cl)cc1)Cc1ccccc1 [Compound 4b, 3-(4-chlorophenyl)-2-nitroallylbenzene]	15.9 ± 0.2	70.74 ± 0.08	–	–
–	–	48.2 ± 2.8	9.92 ± 0.27	50.8 ± 2.7	30.1 ± 3.74	105 to 107	Cc1ccc(C=C(Cc2ccccc2)[N+](=O)[O-])cc1 [Compound 4c, 3-(4-methylphenyl)-2-nitroallylbenzene]	16.56 ± 0.12	62.7 ± 4.21	–	–
–	–	60.4 ± 4.1	3.57 ± 0.13	54.4 ± 3.3	42.8 ± 5.11	53 to 56	COc1ccc(C=C(Cc2ccccc2)[N+](=O)[O-])cc1 [Compound 4d, 3-(4-methoxyphenyl)-2-nitroallylbenzene]	4.72 ± 0.07	79.6 ± 4.6	–	–
–	–	–	> 50	–	> 50	110 to 113	CN(C)c1ccc(C=C(Cc2ccccc2)[N+](=O)[O-])cc1 [Compound 4e, N, N-dimethyl-4-(2-nitro-3-phenylprop-1-enyl)benzenamine]	20.85 ± 0.09	332 ± 12.3	–	–
–	–	43.9 ± 0.98	13.7 ± 4.64	40.3 ± 1.2	36.1 ± 4.1	–	Cc1ccc(C=C(CC(C)C)[N+](=O)[O-])cc1 [Compound 6a, 1-methyl-4-(4-methyl-2-nitropent-1-enyl)benzene]	24.08 ± 0.18	73.1 ± 3.63	–	–
–	–	45.7 ± 3.6	3.82 ± 0.15	50.2 ± 3.5	20.5 ± 1.09	–	COc1ccc(C=C(CC(C)C)[N+](=O)[O-])cc1 [Compound 6b, 1-methoxy-4-(4-methyl-2-nitropent-1-enyl)benzene]	5.27 ± 0.03	60.07 ± 0.01	–	–

SMILES	inhibition at 10 µM ([1]; MCF7, read-out: 20S proteasome inhibition, Inhibition [%] MCF-7) [%]	inhibition at 25 µM ([2]; PC-3, read-out: 20S proteasome inhibition, Inhibition [%] PC-3) [%]	inhibition at 10 µM [1, 3] [%]	IC50 [1, 4] [µM]	inhibition at 25 µM [2, 5] [%]	IC50 [2, 6] [µM]	melting point [°C]	IC50 (MCF-7 cells; MCF7, 48 h) [µM]	IC50 (PC-3 cells; PC-3, 48 h) [µM]	IC50 (MCF-7 cells; [7]) [µM]	IC50 (PC-3 cells; [8]) [µM]
O=[N+]([O-])C=Cc1ccccc1 [Compound 1a, (2-nitrovinyl)benzene]	–	–	85.2 ± 5.9	3.67 ± 0.27	78.6 ± 3.2	38 ± 3.24	–	–	–	5.23 ± 0.17	39.9 ± 0.97
O=[N+]([O-])C=Cc1ccc(Cl)cc1 [Compound 1b, 1-chloro-4-(2-nitrovinyl)benzene]	–	–	93.9 ± 2.4	5.63 ± 0.39	84.3 ± 2.7	48 ± 5.39	–	–	–	7.11 ± 0.22	78.4 ± 3.22
Cc1ccc(C=C[N+](=O)[O-])cc1 [Compound 1c, 1-methyl-4-(2-nitrovinyl)benzene]	–	–	88.9 ± 4.6	5.23 ± 0.15	80.1 ± 5.4	36 ± 2.14	–	–	–	9.63 ± 0.25	70.4 ± 4.33
COc1ccc(C=C[N+](=O)[O-])cc1 [Compound 1d, 1-methoxy-4-(2-nitrovinyl) benzene]	–	–	89.6 ± 4.4	1.21 ± 0.07	84.5 ± 3.9	29.4 ± 2.91	–	–	–	2.2 ± 0.06	60.3 ± 5.11
CN(C)c1ccc(C=C[N+](=O)[O-])cc1 [Compound 1e, N, N-dimethyl-4-(2-nitrovinyl)benzenamine]	–	–	–	> 50	–	> 50	–	–	–	43.9 ± 1.27	188 ± 10.3
O=[N+]([O-])C(=Cc1ccccc1)Cc1ccccc1 [Compound 4a, 3-(phenyl)-2-nitroallylbenzene]	–	–	54.9 ± 4.3	7.56 ± 0.11	42.7 ± 3.6	39.6 ± 16.3	–	10.7 ± 0.16	48.8 ± 2.71	–	–
